# Assay results: US9339486B2, “Heterocyclic modulators of cannabinoid receptors” (THE CLEVELAND CLINIC FOUNDATION, priority 2008, dated 2016)
# pEC50: −log10 of the molar value. Where two headings read alike, the source gives them in different places.
# Tests used:
# rat CB1 (rCB1) = rat CB1 (rCB1) (Rattus norvegicus (Rat), UniProt P20272); experiment: cAMP activation assay rCB1; format: cell-based
# Description: The test was performed in 96 well plates. For testing, 12 μl of cells (2×10^3 cells/well) were mixed with 12 μl of agonist at increasing concentrations. […] The plates were then incubated for 30 min at room temperature. After addition of the lysis buffer, cAMP concentrations were estimated, according to the manufacturer specification, with the HTRF kit from Cis-Bio International (Catalogue number 62AM2PEB).
# [1] = test system: paclitaxel-induced neuropathic pain model; experiment: animal or person; format: in vivo, rat; conditions: for ED50: Rattus norvegicus, ip
# Description: Groups of rats received daily i.p. injections of either vehicle or 1.0 mg/kg paclitaxel daily for four consecutive days for a final cumulative dose of 4 mg/kg; using an injection volume of 1 ml/kg. Polomano, R. C., et al., A Painful Peripheral Neuropathy in the Rat Produced by the Chemotherapeutic Drug, Paclitaxel, Pain, 2001, 94:293-304. The vehicle used in our experiments was the same vehicle used clinically for paclitaxel injections and is composed of a mixture of 10% saline and Cremophor EL® and […]. Baseline responses to mechanical stimulation of the hindpaw (see below) were established on day zero and continued daily until the development of neuropathy was confirmed.
# Rats were placed in a compartment with a wire mesh bottom and allowed to acclimate for a minimum of 30 min before testing. Mechanical sensitivity was assessed using a series of Von Frey filaments with logarithmic incremental stiffness (0.41, 0.70, 1.20, 2.00, 3.63, 5.50, 8.50, and 15.1 g) (Stoelting, Wood Dale, Ill.) as previously described, and 50% probability withdrawal thresholds were calculated with the up-down method. Chaplan, S. R., et al., Quantitative Assessment of Tactile Allodynia in the Rat Paw, J. Neurosci. Methods, 1994, 53:55-63; Dixon, W., The Up-and-Down Method for Small Samples, J. Am. Stat. Assoc., 1965, 60:967-78. In brief, beginning with the 2.0-g probe, filaments were applied to the plantar surface of a hind paw for 6-8 s, in an ascending or descending order after a negative or positive withdrawal response, respectively. Six consecutive responses from the first change in the response were used to calculate the withdrawal threshold (in grams). In cases where response thresholds fell outside the range of detection, 15.00 and 0.25 g were, respectively, assigned for continuous negative or positive responses to the limit of stimuli. The percent maximal possible effect (% MPE) was calculated as ([postdrug threshold−baseline threshold]/[cutoff threshold (15 g)−baseline threshold])×100.
# To determine sensitivity to noxious heat, rats were placed in plexiglass enclosures on a transparent glass surface maintained at 30° C. and allowed to acclimate for 30 min. A thermal testing apparatus, consisting of a heat-emitting projector lamp and an electronic timer, was used. The device was activated after the lamp is placed directly beneath the planter surface of the hindpaw. The paw withdrawal latency in response to the radiant heat was recorded by a digital timer. A cutoff of 30 s was used to prevent potential tissue damage. After the baseline was measured, three groups of naïve rats (n=10) received 1.0, 3.0, or 10 mg/kg of the compound of Example 3 i.p. Response latencies were determined twice for each rat before drug injection and at 5, 10, 15, 30, 45, 60, 90 and 120 min after IP injection. The percent maximal possible effect (% MPE) was calculated as ([postdrug latency−baseline latency]/[cutoff time (30 s)−baseline latency])×100.
# Statistical analyses were carried out using BMDP 2007 (Statistical Solutions, Saugus, Mass., USA) and Graph Pad Prism (version 4.03; Graph Pad Software Inc., San Diego, Calif., USA). Data were analyzed using one-way ANOVA, repeated measures ANOVA, or t-test where appropriate. If ANOVA was significant, Tukey-Kramer post hoc analysis was used for multiple group comparison. Area under the curve (AUC) was calculated using the trapezoidal rule. The results are presented as mean±s.e. mean and were considered significant at P<0.05. Analyses of the dose-response curves and statistics were obtained using the pharmacologic software programs of Tallarida and Murray and included calculation of the ED50 values and their 95% confidence intervals (CI). Tallarida, R. J., et al., Manual of Pharmacologic Calculations With Computer Programs, Second ed. New York: Springer-Verlag, 1987.
# [2] = test system: paclitaxel-induced neuropathy; experiment: Prevention of neuropathy induced by paclitaxel; format: in vivo, rat
# Description: A mixture of saline and CREMOPHOR® ELP 10% was used as vehicle for paclitaxel. It was injected at a concentration of 1.0 mg/kg intraperitoneally to the chemotherapy-treated group of rats on 4 consecutive days for a final cumulative dose of 4 mg/kg to 18 rats.
# Paw withdrawal thresholds were determined daily in both hind paws of each animal using calibrated von Frey monofilaments according to an up-down procedure. A series of von Frey filaments with exponentially incremental degrees of stiffness (0.4, 0.7, 1.2, 2.0, 3.6, 5.5, 8.5, and 15.1 g) was used to measure the 50% threshold for both hindpaw withdrawal in awake, unrestrained rats. Chaplan, S. R., Quantitative assessment of tactile allodynia in the rat paw, Journal of Neuroscience Methods, 1994, 53:55-63. Brisk paw withdrawal from the pressure of a filament gently bent against the plantar surface of the paw was defined as a positive response, and absence of withdrawal within 6 sec was considered a negative response. The series of filaments touched the hindpaw in sequential ascending or descending order of stiffness until the threshold of response was crossed (allowing about 10 sec between each increment). Each time the threshold was crossed, the direction of stimulus presentation was reversed and the procedure resumed. Four responses were collected after the first threshold detection, and the 50% withdrawal thresholds was interpolated. In cases in which the response thresholds fall outside the range of detection, 15.1 and 0.25 g were assigned for continuous negative or positive responses, respectively, to the limits of stimulation. FIG. 17 and FIG. 18 show results from these experiments and that peripheral neuropathy started to develop within a few days. FIG. 18 reflects that a plateau was reached by the 10th day.
# Group 1 of rats received paclitaxel for four days, as described immediately above in subpart (A) titled “Paclitaxel-induced Neuropathy.” In group 2, a dose of 15 mg/kg of the compound of Example 3, injected intraperitoneally was administered 30 minutes prior to the administration of paclitaxel. In group 3, vehicle of the compound of Example 3 was administered 30 min prior to the administration of paclitaxel. Paw withdrawal thresholds were determined daily in both hind paws of each animal using calibrated von Frey monofilaments according to an up-down procedure as described immediately above in subpart (A) titled “Paclitaxel-induced Neuropathy.” The results are shown in FIG. 17.
# FIGS. 19A and 19B show results from an experiment in which three groups of rats were administered 0.25 mL of the compound of Example 3 or the vehicle, a mixture of NMP, propylene glycol, chromophore ELP (25%, 25%, 10%) in sterile water 30 min prior to the administration of paclitaxel. Two of the three experimental groups continued to receive either the vehicle or the compound of Example 3 daily for 11 more days.
compound,measurement,setting,value
"CC1(Cc2ccccc2)COc2cc(C(=O)N3CCCCC3)ccc21 (stereo not shown) [Example 3, 3-benzyl-3-methyl-2,3-dihydrobenzofuran-6-carboxylic acid-piperidine amide]",activity at rCB1 receptors,rat CB1 (rCB1),did not exhibit any activity
same,pEC50,rat CB1 (rCB1); read-out: Agonist EC50 (mean ± s.e. mean) cAMP activation assays rCB1,< 5.00
same,ED50,"[1]; 20 min, read-out: ED50 for suppressing thermal hyperalgesia",13.5 mg/kg
same,ED50,[1]; read-out: ED50 tactile allodynia (% MPE withdrawal threshold AUC),24 mg/kg
same,time of maximal suppression,[1]; i.p.,20 min
same,effect on paclitaxel-evoked thermal hyperalgesia and mechanical allodynia relative to vehicle,"[1]; i.p., dose-dependent",suppressed
same,development of paclitaxel-evoked mechano-allodynia,[2]; 15 mg/kg for 4 days only,did not prevent but significantly prevented the severity
same,"prevention of paclitaxel-induced neuropathy, share of rats",[2]; administered for 14 days (4 days concomitant with paclitaxel and further 10 days),100%
same,prevention of paclitaxel-induced neuropathy,[2]; administered for four days only,short-lived prevention
same,development of paclitaxel-evoked mechano-allodynia,[2]; continued 15 mg/kg IP daily,completely prevented
